# Read-outs that look alike come from different tables or passages of the source.
# Assays:
# isolated hearts [1] = settings: 5-minute succinate infusion
# Text: (§1) Spraque-Dawley rats (250 to 300 g; Sasco Inc., Omaha, Nebr.) were fasted overnight to standardize the levels of glycogen and fatty acids. The animal protocol was reviewed and approved by an appropriate Animal Care and Research Committee. All animals received humane care in compliance with the “Guide for the Care and Use of Laboratory Animals” (NIH Publication No. 85-23, revised 1985). All chemicals were obtained from Sigma (St. Louis, Mo.).
# As previously described by Banerjee et al, the hearts from rats anticoagulated with heparin were excised, immediately arrested in iced oxygenated perfusate, placed on a modified Langendorff apparatus, and retrograded perfused at a constant pressure of 70 mm Hg with nonrecirculating Krebs-Henseleit solution saturated with a gas mixture of 92.5% O2 and 7.5% CO2 Banerjee et al., Circ. Res., 73, 649 (1993). A water-filled latex balloon was inserted into the left ventricle (LV) and the balloon volume was adjusted to achieve a stable LV end-diastolic pressure of 5 mm Hg. This volume was then kept constant for the duration of the study. Pacing wires were fixed to the right atrium, and the hearts were paced at 350 beats per minute except during ischemia and the first three minutes of reperfusion.
# The left ventricular developed pressure (LVDP, in mm Hg) was used as an index of myocardial function and was continuously recorded with a computerized bridge amplifier/digitalizer (Maclab 8, AD Instruments) and a Macintosh AV 7100 (Apple Computer). Hearts unable to initially produce 90 to 120 mm Hg LVDP when paced at 350 beats per minute were discarded. A stopcock above the aortic root was turned to create global ischemia, during which time the heart was placed in a degassed humidified chamber at 37° C.
# The myocardial cytochrome a,a3 redox state, oxymyoglobin (MbO2) and deoxymyoglobin, was continuously monitored using near infrared spectroscopy (NIRS). The use of NIRS to study cardiac metabolism was described previously. In this study, a single NIRS probe (as disclosed in co-pending U.S. patent application Ser. No. 08/672,625) containing five fiber optic bundles (four peripherally arranged to supply infrared light (700 to 1000 nm) and one fiber positioned 4 mm away to receive the transmitted light) was placed on the lift ventricle. For each heart, a signal reference zero value is set at the beginning of the study. The resultant signal changes are continuously processed and recorded using analytic algorithms to separate the effects of each of the signals. The resulting NIRS measurements were taken directly from the monitor and plotted in absorption units versus time. These strips were then printed and saved for subsequent analysis.
# In the second phase of the study, 12 isolated hearts were placed on the Langendorff apparatus as described above. After the equilibration period, 5-minute infusions of succinate at concentrations of 0, 2 ,20 ,200, and 2000 μmol/L were delivered via a Harvard infusion pump directly into a port above the aortic cannula at 0.068 mL/minute. LVDP, heart rate, cytochrome a,a3 redox state, MbO2 and deoxymyoglobin were continuously monitored as described above.
# isolated hearts [2] = tested on: isolated hearts
# Text: as §1
# As previously described by Banerjee et al, the hearts from rats anticoagulated with heparin were excised, immediately arrested in iced oxygenated perfusate, placed on a modified Langendorff apparatus, and retrograded perfused at a constant pressure of 70 mm Hg with nonrecirculating Krebs-Henseleit solution saturated with a gas mixture of 92.5% O2 and 7.5% CO2 Banerjee et al., Circ. Res., 73, 649 (1993). […]
# The left ventricular developed pressure (LVDP, in mm Hg) was used as an index of myocardial function and was continuously recorded with a computerized bridge amplifier/digitalizer (Maclab 8, AD Instruments) and a Macintosh AV 7100 (Apple Computer). […]
# The myocardial cytochrome a,a3 redox state, oxymyoglobin (MbO2) and deoxymyoglobin, was continuously monitored using near infrared spectroscopy (NIRS). […] The resultant signal changes are continuously processed and recorded using analytic algorithms to separate the effects of each of the signals. […]
# [3] = lower concentrations, non-ischemic heart
compound,measurement,setting,value
O=C(O)CCC(=O)O [succinate],LVDP (left ventricular developed pressure),isolated hearts [1]; 20 μmol/L,not different from control
same,"cytochrome a,a3 redox state",isolated hearts [1]; 20 μmol/L,"reduction of the cytochrome a,a3 redox state"
same,LVDP (left ventricular developed pressure),isolated hearts [1]; 200 μmol/L,not different from control
same,"cytochrome a,a3 redox state",isolated hearts [1]; 200 μmol/L,"reduction of the cytochrome a,a3 redox state"
same,LVDP (left ventricular developed pressure),isolated hearts [1]; 2000 μmol/L,markedly reduced
same,"cytochrome a,a3 redox state",isolated hearts [1]; 2000 μmol/L,markedly reduced
same,LVDP (left ventricular developed pressure),isolated hearts [1]; [3],minimal effects
same,"cytochrome a,a3 redox state",isolated hearts [1]; [3],minimal effects
same,"cytochrome a,a3 redox state on reperfusion","isolated hearts [2]; 200 μmol/L succinate for first 5 minutes of reperfusion after 20 min global ischemia, versus control buffer",attenuation of the oxidation
same,"coupling relationship between oxyhemoglobin and the redox state of cytochrome a,a3",isolated hearts [2]; succinate given early in reperfusion at the described dosages,restores the coupling relationship

# Source: patent publication US6712802B1, “Metabolic therapy directed at electron transport” (priority 1997, dated 2004)
